The values below come from patent publication US11827627B2, “N-(hydroxyalkyl (hetero)aryl) tetrahydrofuran carboxamides as modulators of sodium channels” (VERTEX PHARMACEUTICALS INCORPORATED, priority 2021, dated 2023).

Each structure is given as a SMILES string.

human NaV 1.8, sequence (Q9Y5Y9 126-1722 limits assumed): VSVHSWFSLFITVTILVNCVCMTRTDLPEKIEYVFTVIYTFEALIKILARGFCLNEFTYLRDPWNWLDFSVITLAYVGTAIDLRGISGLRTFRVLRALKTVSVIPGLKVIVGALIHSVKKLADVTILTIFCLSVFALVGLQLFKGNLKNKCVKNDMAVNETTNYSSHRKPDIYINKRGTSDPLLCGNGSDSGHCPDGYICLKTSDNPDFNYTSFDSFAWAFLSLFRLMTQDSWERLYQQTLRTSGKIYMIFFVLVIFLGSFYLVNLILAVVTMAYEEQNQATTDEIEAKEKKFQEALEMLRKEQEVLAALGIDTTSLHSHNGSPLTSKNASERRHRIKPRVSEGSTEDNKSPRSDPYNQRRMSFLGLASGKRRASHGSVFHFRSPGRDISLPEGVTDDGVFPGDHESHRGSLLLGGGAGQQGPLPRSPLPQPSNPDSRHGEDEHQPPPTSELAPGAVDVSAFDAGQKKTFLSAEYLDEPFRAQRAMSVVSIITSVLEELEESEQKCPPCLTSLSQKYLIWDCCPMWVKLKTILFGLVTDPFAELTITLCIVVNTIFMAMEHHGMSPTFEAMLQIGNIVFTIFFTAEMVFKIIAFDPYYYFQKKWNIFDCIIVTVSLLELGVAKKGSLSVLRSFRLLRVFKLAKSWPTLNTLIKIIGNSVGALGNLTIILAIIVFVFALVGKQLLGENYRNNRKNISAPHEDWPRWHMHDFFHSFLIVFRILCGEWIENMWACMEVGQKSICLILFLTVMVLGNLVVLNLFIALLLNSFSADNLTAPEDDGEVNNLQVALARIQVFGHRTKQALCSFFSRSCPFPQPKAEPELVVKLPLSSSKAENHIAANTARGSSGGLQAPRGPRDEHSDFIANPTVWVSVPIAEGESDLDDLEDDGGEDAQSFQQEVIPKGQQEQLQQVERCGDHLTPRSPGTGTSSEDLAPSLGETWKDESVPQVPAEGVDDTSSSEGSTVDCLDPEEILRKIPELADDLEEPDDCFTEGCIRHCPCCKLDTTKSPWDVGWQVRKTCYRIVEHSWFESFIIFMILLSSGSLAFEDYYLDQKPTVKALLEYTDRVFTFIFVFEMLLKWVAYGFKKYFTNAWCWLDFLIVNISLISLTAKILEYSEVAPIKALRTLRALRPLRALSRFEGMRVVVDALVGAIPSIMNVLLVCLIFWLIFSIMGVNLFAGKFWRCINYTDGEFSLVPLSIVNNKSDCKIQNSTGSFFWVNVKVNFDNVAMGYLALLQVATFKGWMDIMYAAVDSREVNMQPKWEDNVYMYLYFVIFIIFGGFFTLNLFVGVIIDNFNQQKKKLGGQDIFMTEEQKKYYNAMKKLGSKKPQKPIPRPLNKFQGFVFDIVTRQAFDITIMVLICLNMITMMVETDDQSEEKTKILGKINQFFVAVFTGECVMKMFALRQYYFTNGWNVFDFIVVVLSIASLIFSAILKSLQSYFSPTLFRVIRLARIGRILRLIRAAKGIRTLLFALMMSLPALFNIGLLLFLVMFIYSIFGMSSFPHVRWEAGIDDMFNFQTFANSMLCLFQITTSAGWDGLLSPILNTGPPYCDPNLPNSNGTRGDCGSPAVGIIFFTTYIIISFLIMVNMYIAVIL

The assay concerns the target human NaV 1.8 (Homo sapiens, UniProt Q9Y5Y9). Description: E-VIPR assay detecting and measuring NaV inhibition properties. It is filed as cell-based. The following applies: HEK cells expressing a truncated form of human NaV 1.8; electrical stimulation, membrane potential FRET dyes. The essentials: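 HEK cells expressing truncated full-activity NaV 1.8, co-transduced with KIR2.1 BacMam, seeded 16-20 h before assay. Electrical stimulation with FRET membrane-potential dyes (CC2-DMPE/DiSBAC6(3)) in HEPES-buffered bath solutions; 25% human serum final.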
As for `COc1c([C@H]2[C@H](C(=O)Nc3ccc([C@@H](C)O)nc3)O[C@@](C)(C(F)(F)F)[C@H]2C)ccc(F)c1F` [Compound 84, (2R,3S,4S,5R)-3-(3,4-difluoro-2-methoxyphenyl)-N-(6-((R)-1-hydroxyethyl)pyridin-3-yl)-4,5-dimethyl-5-(trifluoromethyl)tetrahydrofuran-2-carboxamide], the IC50 is less than 10 nM.
Turning to `COc1c([C@H]2[C@H](C(=O)Nc3ccc([C@H](C)O)nc3)O[C@@](C)(C(F)(F)F)[C@H]2C)ccc(F)c1F` [Compound 85, (2R,3S,4S,5R)-3-(3,4-difluoro-2-methoxyphenyl)-N-(6-((S)-1-hydroxyethyl)pyridin-3-yl)-4,5-dimethyl-5-(trifluoromethyl)tetrahydrofuran-2-carboxamide], the 50% inhibitory concentration (IC50) fell in the range of 10 to 100 nM.
As for `COc1c([C@H]2[C@H](C(=O)Nc3cnc(CO)cn3)O[C@@](C)(C(F)(F)F)[C@H]2C)ccc(F)c1F` [Compound 86, (2R,3S,4S,5R)-3-(3,4-difluoro-2-methoxyphenyl)-N-(5-(hydroxymethyl)pyrazin-2-yl)-4,5-dimethyl-5-(trifluoromethyl)tetrahydrofuran-2-carboxamide], the concentration for half-maximal inhibition (IC50) lay within 10 to 100 nM.
Take `COc1c([C@H]2[C@H](C(=O)Nc3cnc(CO)c(CO)c3)O[C@@](C)(C(F)(F)F)[C@H]2C)ccc(F)c1F` [Compound 87, (2R,3S,4S,5R)-N-(5,6-bis(hydroxymethyl)pyridin-3-yl)-3-(3,4-difluoro-2-methoxyphenyl)-4,5-dimethyl-5-(trifluoromethyl)tetrahydrofuran-2-carboxamide]: the IC50 fell in the range of 100 to 1000 nM.
